From patent publication US11534114B2, “18F labeled amino acids, derivatives thereof and method of making same” (SIMON FRASER UNIVERSITY, priority 2016, dated 2022)

System: U-87 tumor
Experiment: Dynamic PET/CT time-activity curves of accumulation in selected organs
Type: in vivo, mice
Conditions: time-activity curves (FIG. 41)

For `CC(C)([18F])CC[C@H](N)C(=O)O` [5-[^18F]FHL, 5-[^18F]fluorohomoleucine], the “course of activity in U-87 tumor and pancreas after the peak” value (after peak accumulation) was “slow progressive efflux” and the “time of peak accumulation in the U-87 tumor and pancreas” value (intravenous injection, mice bearing U-87 xenograft, 60 min dynamic scan) was under 10 min.
